From patent US20250354986A1, “AFFINITY ENCODED OSCILLATOR ARRAYS, METHODS, AND RELATED ASPECTS FOR MEASURING MOLECULAR BINDING KINETICS” (ARIZONA BOARD OF REGENTS ON BEHALF OF ARIZONA STATE …, priority 2024, published 2025)
Counter-ions that a name gives are not always drawn.

Legend:
[1] = tested on: decoding sequence 1; details: for averaged equilibrium affinity constant (KA): first barcode group hybridized with its DNA decoding sequence, 37 individual nano-oscillators per probe; for Median of amplitude change for association: group 1 barcode nano-oscillators, hybridization signal
Protocol: (§1) To enable affinity-based barcoding, it is important to ensure nanoarrays are addressable by distinct affinities induced by different nucleotides mismatches. […] Perfectly matched, two and three-nucleotide mismatched complementary single DNA strains were used as barcode sequences on the nanocomplexes. Attributed to the charge-sensitive detection capability of nano-oscillators, hybridization of the charge-rich decoding DNA onto the nano-oscillators were recorded in real-time, enabling the calculation of hybridization affinities.
(§2) In FIG. 8, for each kind of barcode sequence, 37 individual nano-oscillators were measured for statistical study.
(§3) The second step of the measurement is decoding, which identifies the type of GPCRs on individual nano-oscillators, and was achieved by sequentially measuring the binding affinity of all decoding sequences. Each round of decoding flowed 50 nM of a specific readout sequence to hybridize with the barcodes on the nano-oscillator for 550 seconds, followed by buffer washing to dissociate the readout sequence for a duration of 250 seconds. Conducting the ligand screening before decoding can prevent potential issue of saturated oscillation amplitude change that may arise from excessively high negatively charged nano-oscillators after hybridization with the decoding sequence. Throughout all experiments, the injected sample was driven by a syringe pump and flowed onto the upper right portion of the field-of-view to minimize mass transport issues.
(§4) After recording the images, a region of interest (ROI) was selected on each particle (covering the parabolic tail), and the mean intensity within the ROI was calculated as the plasmonic intensity. An adjacent region with the same size was selected as the reference region, and its intensity was used to remove common noise from the ROI. The oscillation amplitude was obtained in every second using fast Fourier transform (FFT). The FFT intensity at the oscillation frequency was then plotted against time to illustrate both the binding trend and decoding process. Response curve fitting and calculation of binding kinetic constants were conducted using Scrubber (BioLogic Software). All data were visualized using Origin and MATLAB.

[2] = tested on: K082 virions with no GPCR displayed on the envelope; test: Control nano-oscillators: K082 virion with no GPCR, or AuNP only; details: K082 virion with no GPCR displayed, or AuNP only without virion
Protocol: By fitting the binding curves with the first order kinetics model, the associate rate constant, dissociate rate constant and equilibrium constants for each nano-oscillator were obtained. […] To validate the individual nano-oscillator results, interactions of the same ligand with high density ensemble virion-oscillators were measured (FIG. 15). The binding response curves are the averaged oscillation amplitude of the entire ensemble area as a function of time. […] This phenomenon is likely due to the heterogeneity in GPCR expression level among individual virions, which will affect maximum binding signal, but not the binding kinetics.

[3] = tested on: decoding sequence 2; details: for Median of amplitude change for association: group 2 barcode nano-oscillators, hybridization signal; for averaged equilibrium affinity constant (KA): second barcode group hybridized with its DNA decoding sequence, 37 individual nano-oscillators per probe
Protocol: as §1, §2, §3, §4

[4] = stated without a test; cited from earlier work

Row | Molecule | averaged equilibrium affinity constant (KA) [1] | Median of amplitude change for association [1] | Median of amplitude change for association [3] | averaged equilibrium affinity constant (KA) [3] | further results
1 | biotin-(CH2)6-5′-ACAATACCTCGGCCCTTCTC-3′ [barcode 1 (group 1)] | (8.1±1.1)×10^8 M^−1 | 9.7 nm |  |  | 
2 | CC(C)NCC(O)COc1cccc2ccccc12 (centres unmarked) [Propranolol, Propranolol hydrochloride] |  |  |  |  | oscillation amplitude response of control nano-oscillators to ligand [2]: not obvious responding
3 | biotin-(CH2)6-5′-ACACTACCTCGGCCCTCCTC-3′ [barcode 2 (group 1)] | (5.3±0.74)×10^7 M^−1 | 9.6 nm |  |  | 
4 | biotin-(CH2)6-5′-GAGTTGCTACAGACCTTCGT-3′ [barcode 1 (group 2)] |  |  | 11.6 nm | (7.1±0.98)×10^8 M^−1 | 
5 | biotin-(CH2)6-5′-ACACTACCTCAGCCCTCCTC-3′ [barcode 3 (group 2)] |  |  | 7.2 nm | (2.0±0.78)×10^6 M^−1 | 
6 | biotin-(CH2)6-5′-GAGTTACTACAGACCATCGT-3′ [barcode 2 (group 2)] |  |  | 10.9 nm | (6.5±1.1)×10^7 M^−1 | 
7 | Tocrifluor |  |  |  |  | charge at pH 7.4 [4]: neutral
8 | biotin-(CH2)6-5′-ACACTACCTCAGCCCTCCTC-3′ [barcode 3 (group 1)] | (5.9±0.82)×10^6 M^−1 | 7.5 nm |  |  | 
